Laboratory results as given in US12569452B2, “Ophthalmic compositions comprising F6H8” (NOVALIQ GMBH, priority 2017, dated 2026).

Experiment: Ocular tissue distribution after multiple topical ocular doses of 14C-F6H8, liquid scintillation counting
Type: in vivo, female Dutch Belted rabbits
Conditions: for Mean concentration of radioactivity, Conjunctiva (bulbar) / Mean concentration of radioactivity, Conjunctiva (palpebral) / Mean concentration of radioactivity, Cornea / Mean concentration of radioactivity, Lacrimal gland (accessory) / Mean concentration of radioactivity, Lacrimal gland (main) / Mean concentration of radioactivity, Meibomian glands / Mean concentration of radioactivity, Sclera (anterior) / Mean concentration of radioactivity, Tears: multiple dose (nine doses)
Experimental: Animals are not fasted prior to dose administration. All animals receive single 35 μL-drops of the dose formulation in each eye, with the right eye dosed first. All collection times are based on the time of dosing of the second (left) eye for the last dose, as applicable.
After the dose is administered, the eye is allowed to close naturally. Each animal is then restrained for approximately 1 minute to prevent rubbing of the eyes.
Tears and Ocular Tissue Collection: Tears are collected from two animals per group per time point at 0.25, 0.5, 1, 2, 4, 8, and 24 hours post-dose following the single dose or the last dose of the multiple dose scheme. Tears are collected using Tear Flo Test (TFT) strips that were dye free. One strip of paper is used for each eye for each time point. Following collection, the tube containing the strip is placed on dry ice or stored at approximately −70° C. until analysed.
At the time of sacrifice, both eyes are enucleated and ocular tissues including Aqueous humour, Conjunctiva (bulbar), Conjunctiva (palpebral), Lacrimal gland (accessory), Lacrimal gland (main), Meibomian glands (tarsal plate), Choroid-Retinal pigmented epithelium (Choroid-RPE), Cornea, Iris-ciliary body (ICB), Retina, Sclera (anterior), Sclera (posterior), Vitreous humour are collected.
Radioanalysis: All samples are analyzed for radioactivity in a Model 2900TR liquid scintillation counter (Packard Instrument Company) for at least 5 minutes or 100,000 counts, utilizing Ultima Gold XR or Hionic Fluor scintillation cocktails (Perkin Elmer). Each sample is homogenized before radioanalysis, unless the entire sample is used for analysis. All samples are analyzed in duplicate if sample size allows.
For Conjunctiva (bulbar and palpebral), Cornea, Lacrimal gland (main), Meibomian glands, Retina, and Sclera (anterior and posterior), each sample is digested in 2M sodium hydroxide in ethanol (80:20, v:v) and maintained at room temperature or in an oven set no higher than 30° C. until dissolved. Scintillation cocktail is added, and the samples are shaken and analyzed directly by LSC.
For Lacrimal gland (accessory), each sample is digested in 2M sodium hydroxide in ethanol (80:20, v:v) and maintained at room temperature or in an oven set no higher than 30° C. until dissolved. The sample is homogenized by mixing and duplicate weighed aliquots are analyzed directly by LSC.
For Tears, at least 10 mL of Ultima Gold XR scintillation cocktail is added, and the samples are shaken and analyzed by LSC.
Multiple topical ocular administration: The rabbits receive twice daily doses (approximately 12 hours apart±20 minutes) of 35 μl ^14C—F6H8 administered to both eyes for four consecutive days, and on the fifth day receive a single dose in the morning to both eyes (a total of nine doses). The administered dose level at each dosing occasion is approximately 47 mg/eye, equivalent to […]. Following the last dose on Study Day 5, two animals per time point are sacrificed at 0.25, 0.5, 1, 2, 4, 8, and 24 hours post-dose in a sparse sampling profile. Ocular tissues (including tears collected prior to sacrifice) are collected from all animals at sacrifice.

[1] = multiple dose, between 0.25 and 4 hours post-dose

^14C-1-Perfluorohexyloctane [^14C-F6H8]
Mean concentration of radioactivity, Conjunctiva (bulbar) (0.25 h after last dose): 8290 ng Equivalents ^14C-F6H8/g
Mean concentration of radioactivity, Conjunctiva (palpebral) (0.25 h after last dose): 14000 ng Equivalents ^14C-F6H8/g
Mean concentration of radioactivity, Cornea (0.25 h after last dose): 20600 ng Equivalents ^14C-F6H8/g
Mean concentration of radioactivity, Lacrimal gland (accessory) (0.25 h after last dose): 7120 ng Equivalents ^14C-F6H8/g
Mean concentration of radioactivity, Lacrimal gland (main) (0.25 h after last dose): 7090 ng Equivalents ^14C-F6H8/g
Mean concentration of radioactivity, Meibomian glands (0.25 h after last dose): 222000 ng Equivalents ^14C-F6H8/g
Mean concentration of radioactivity, Sclera (anterior) (0.25 h after last dose): 3550 ng Equivalents ^14C-F6H8/g
Mean concentration of radioactivity, Tears (0.25 h after last dose): 2330000 ng Equivalents ^14C-F6H8/g
Mean concentration of radioactivity, Conjunctiva (bulbar) (0.5 h after last dose): 5280 ng Equivalents ^14C-F6H8/g
Mean concentration of radioactivity, Conjunctiva (palpebral) (0.5 h after last dose): 11900 ng Equivalents ^14C-F6H8/g
Mean concentration of radioactivity, Cornea (0.5 h after last dose): 21000 ng Equivalents ^14C-F6H8/g
Mean concentration of radioactivity, Lacrimal gland (accessory) (0.5 h after last dose): 8190 ng Equivalents ^14C-F6H8/g
Mean concentration of radioactivity, Lacrimal gland (main) (0.5 h after last dose): 8140 ng Equivalents ^14C-F6H8/g
Mean concentration of radioactivity, Meibomian glands (0.5 h after last dose): 145000 ng Equivalents ^14C-F6H8/g
Mean concentration of radioactivity, Sclera (anterior) (0.5 h after last dose): 2650 ng Equivalents ^14C-F6H8/g
Mean concentration of radioactivity, Tears (0.5 h after last dose): 872000 ng Equivalents ^14C-F6H8/g
Mean concentration of radioactivity, Conjunctiva (bulbar) (1 h after last dose): 4440 ng Equivalents ^14C-F6H8/g
Mean concentration of radioactivity, Conjunctiva (palpebral) (1 h after last dose): 11300 ng Equivalents ^14C-F6H8/g
Mean concentration of radioactivity, Cornea (1 h after last dose): 27600 ng Equivalents ^14C-F6H8/g
Mean concentration of radioactivity, Lacrimal gland (accessory) (1 h after last dose): 4770 ng Equivalents ^14C-F6H8/g
Mean concentration of radioactivity, Lacrimal gland (main) (1 h after last dose): 4610 ng Equivalents ^14C-F6H8/g
Mean concentration of radioactivity, Meibomian glands (1 h after last dose): 92900 ng Equivalents ^14C-F6H8/g
Mean concentration of radioactivity, Sclera (anterior) (1 h after last dose): 3920 ng Equivalents ^14C-F6H8/g
Mean concentration of radioactivity, Tears (1 h after last dose): 742000 ng Equivalents ^14C-F6H8/g
Mean concentration of radioactivity, Conjunctiva (bulbar) (2 h after last dose): 3970 ng Equivalents ^14C-F6H8/g
Mean concentration of radioactivity, Conjunctiva (palpebral) (2 h after last dose): 7510 ng Equivalents ^14C-F6H8/g
Mean concentration of radioactivity, Cornea (2 h after last dose): 15900 ng Equivalents ^14C-F6H8/g
Mean concentration of radioactivity, Lacrimal gland (accessory) (2 h after last dose): 5140 ng Equivalents ^14C-F6H8/g
Mean concentration of radioactivity, Lacrimal gland (main) (2 h after last dose): 5040 ng Equivalents ^14C-F6H8/g
Mean concentration of radioactivity, Meibomian glands (2 h after last dose): 100000 ng Equivalents ^14C-F6H8/g
Mean concentration of radioactivity, Sclera (anterior) (2 h after last dose): 2080 ng Equivalents ^14C-F6H8/g
Mean concentration of radioactivity, Tears (2 h after last dose): 832000 ng Equivalents ^14C-F6H8/g
Mean concentration of radioactivity, Conjunctiva (bulbar) (4 h after last dose): 3840 ng Equivalents ^14C-F6H8/g
Mean concentration of radioactivity, Conjunctiva (palpebral) (4 h after last dose): 6920 ng Equivalents ^14C-F6H8/g
Mean concentration of radioactivity, Cornea (4 h after last dose): 17500 ng Equivalents ^14C-F6H8/g
Mean concentration of radioactivity, Lacrimal gland (accessory) (4 h after last dose): 9280 ng Equivalents ^14C-F6H8/g
Mean concentration of radioactivity, Lacrimal gland (main) (4 h after last dose): 8890 ng Equivalents ^14C-F6H8/g
Mean concentration of radioactivity, Meibomian glands (4 h after last dose): 70300 ng Equivalents ^14C-F6H8/g
Mean concentration of radioactivity, Sclera (anterior) (4 h after last dose): 3470 ng Equivalents ^14C-F6H8/g
Mean concentration of radioactivity, Tears (4 h after last dose): 103000 ng Equivalents ^14C-F6H8/g
Mean concentration of radioactivity, Conjunctiva (bulbar) (8 h after last dose): 2970 ng Equivalents ^14C-F6H8/g
Mean concentration of radioactivity, Conjunctiva (palpebral) (8 h after last dose): 5160 ng Equivalents ^14C-F6H8/g
Mean concentration of radioactivity, Cornea (8 h after last dose): 22000 ng Equivalents ^14C-F6H8/g
Mean concentration of radioactivity, Lacrimal gland (accessory) (8 h after last dose): 5100 ng Equivalents ^14C-F6H8/g
Mean concentration of radioactivity, Lacrimal gland (main) (8 h after last dose): 4650 ng Equivalents ^14C-F6H8/g
Mean concentration of radioactivity, Meibomian glands (8 h after last dose): 52900 ng Equivalents ^14C-F6H8/g
Mean concentration of radioactivity, Sclera (anterior) (8 h after last dose): 2650 ng Equivalents ^14C-F6H8/g
Mean concentration of radioactivity, Tears (8 h after last dose): 32200 ng Equivalents ^14C-F6H8/g
Mean concentration of radioactivity, Conjunctiva (bulbar) (24 h after last dose): 2750 ng Equivalents ^14C-F6H8/g
Mean concentration of radioactivity, Conjunctiva (palpebral) (24 h after last dose): 4410 ng Equivalents ^14C-F6H8/g
Mean concentration of radioactivity, Cornea (24 h after last dose): 16200 ng Equivalents ^14C-F6H8/g
Mean concentration of radioactivity, Lacrimal gland (accessory) (24 h after last dose): 3480 ng Equivalents ^14C-F6H8/g
Mean concentration of radioactivity, Lacrimal gland (main) (24 h after last dose): 3630 ng Equivalents ^14C-F6H8/g
Mean concentration of radioactivity, Meibomian glands (24 h after last dose): 45500 ng Equivalents ^14C-F6H8/g
Mean concentration of radioactivity, Sclera (anterior) (24 h after last dose): 2410 ng Equivalents ^14C-F6H8/g
Mean concentration of radioactivity, Tears (24 h after last dose): 46800 ng Equivalents ^14C-F6H8/g
Highest mean concentration, Meibomian glands [1]: 222000 ng equivalents ^14C—F6H8/g
Highest mean concentration, accessory lacrimal gland [1]: 9280 ng equivalents ^14C—F6H8/g
Highest mean concentration, bulbar conjunctiva [1]: 8290 ng equivalents ^14C—F6H8/g
Highest mean concentration, cornea [1]: 27600 ng equivalents ^14C—F6H8/g
Highest mean concentration, main lacrimal gland [1]: 8890 ng equivalents ^14C—F6H8/g
Highest mean concentration, palpebral conjunctiva [1]: 14000 ng equivalents ^14C—F6H8/g
Highest mean concentration, tears [1]: 2330000 ng equivalents ^14C—F6H8/g
Ocular tissue concentrations, multiple compared to single topical ocular administration (multiple vs single dose scheme): higher concentrations
